Target: human Kv1.5 channel (Homo sapiens, UniProt P22460)
Test: Test A: Rb+ efflux assay
Type: cell-based
Settings: CHO cells stably transfected with cDNA for human Kv1.5
Experimental: This assay identifies compounds that block the human Kv1.5 channel potassium channel heterologously expressed in Chinese Hamster Ovary (CHO) cells by means of Rb+ ion efflux using Flame Atomic Absorption Spectroscopy. For experimental studies, CHO cells stably transfected with cDNA for human Kv1.5 were grown as confluent layers in Falcon, 384-well tissue culture-treated black-walled clear-bottomed plates and the plates were incubated overnight at 37° C. in a cell culture incubator.
After incubating overnight the cell plates were washed and a buffer containing Rb+ ions were added to the cell plates. The plates were then incubated for another 3-4 hours in a CO2-incubator (37° C.). Following this incubation period plates were washed, compounds were added and subsequently a buffer containing elevated K+ concentrations were added in order to activate the Kv1.5 channel. Following a short incubation time, aliquots of the supernatants were transferred to supernatant plates for subsequent determination of the Rb+ content using Atomic Absorption Spectrometry (ICR8000 instrument, Aurora Biomed Inc.).

Chain of human Kv1.5 channel (P22460 whole entry): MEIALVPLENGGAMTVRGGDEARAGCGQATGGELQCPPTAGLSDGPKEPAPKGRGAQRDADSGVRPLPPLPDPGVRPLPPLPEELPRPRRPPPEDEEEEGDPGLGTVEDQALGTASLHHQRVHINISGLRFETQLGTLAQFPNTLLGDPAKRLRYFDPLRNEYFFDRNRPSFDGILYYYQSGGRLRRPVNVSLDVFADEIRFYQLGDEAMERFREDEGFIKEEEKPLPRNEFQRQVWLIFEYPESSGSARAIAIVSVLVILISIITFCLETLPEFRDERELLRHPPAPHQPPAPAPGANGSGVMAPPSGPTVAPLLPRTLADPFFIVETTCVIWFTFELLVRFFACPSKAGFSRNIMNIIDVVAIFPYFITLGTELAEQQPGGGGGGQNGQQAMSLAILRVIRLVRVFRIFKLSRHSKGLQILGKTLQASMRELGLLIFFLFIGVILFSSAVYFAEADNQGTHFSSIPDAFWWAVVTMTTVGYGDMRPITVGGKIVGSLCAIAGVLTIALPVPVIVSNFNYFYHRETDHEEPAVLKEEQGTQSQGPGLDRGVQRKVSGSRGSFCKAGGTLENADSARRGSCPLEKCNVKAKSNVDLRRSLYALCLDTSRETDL

Point of comparison: `Cc1c(O)ccc2c1C(=O)N(Cc1ccccc1-c1ccc(Cl)c(Cl)c1)C2C(=O)NC(C)(C)C` (centres unmarked) [N-(tert-butyl)-2-[(3′,4′-dichlorobiphenyl-2-yl)methyl]-5-hydroxy-4-methyl-3-oxoisoindoline-1-carboxamide], IC50 720 nM. Against it:
- O=C(NCc1ccc(C(F)(F)F)nc1)C1c2ccccc2C(=O)N1Cc1ccccc1-c1ccccc1 (centres unmarked) [2-(biphenyl-2-ylmethyl)-3-oxo-N-{[6-(trifluoromethyl)pyridin-3-yl]methyl}isoindoline-1-carboxamide] — within 1.5-fold, 940 nM
- C[C@H](c1ccccc1)N1C(=O)c2cc(Br)ccc2C1C(=O)NCc1ccccc1 (stereo partly drawn) [N-benzyl-5-bromo-3-oxo-2-[(1R)-1-phenylethyl]isoindoline-1-carboxamide] — 2.9-fold higher, 2100 nM
- CC(C)(C)NC(=O)C1c2cc(C#N)ccc2C(=O)N1Cc1ccccc1-c1ccccc1 (centres unmarked) [2-(biphenyl-2-ylmethyl)-N-(tert-butyl)-6-cyano-3-oxoisoindoline-1-carboxamide] — 3.3-fold higher, 2400 nM
- CCCCN(Cc1ccccc1)C(=O)C1c2ccccc2C(=O)N1CCc1ccc(Cl)cc1 (centres unmarked) [N-benzyl-N-butyl-2-[2-(4-chlorophenyl)ethyl]-3-oxoisoindoline-1-carboxamide] — 2.1-fold lower, 340 nM
- O=C(NCc1ccccc1)C1c2cc(Br)ccc2C(=O)N1Cc1ccccc1 (centres unmarked) [N,2-dibenzyl-6-bromo-3-oxoisoindoline-1-carboxamide] — within 1.5-fold, 840 nM
- Cc1c(O)ccc2c1C(=O)N(Cc1ccccc1-c1ccc(F)c(F)c1)C2C(=O)NC(C)(C)C (centres unmarked) [N-(tert-butyl)-2-[(3′,4′-difluorobiphenyl-2-yl)methyl]-5-hydroxy-4-methyl-3-oxoisoindoline-1-carboxamide] — 2.8-fold higher, 2000 nM
- O=C(NCc1ccc(CNC(=O)C2c3ccccc3C(=O)N2Cc2ccccc2-c2ccccc2)cc1)C(F)F (centres unmarked) [2-(biphenyl-2-ylmethyl)-N-(4-{[(difluoroacetyl)amino]methyl}benzyl)-3-oxoisoindoline-1-carboxamide] — 3.3-fold higher, 2400 nM
- CN(C)c1ccc(CNC(=O)C2c3ccccc3C(=O)N2Cc2cc(C(F)(F)F)cc(C(F)(F)F)c2)cc1 (centres unmarked) [2-[3,5-bis(trifluoromethyl)benzyl]-N-[4-(dimethylamino)benzyl]-3-oxoisoindoline-1-carboxamide] — 2.5-fold higher, 1800 nM
- Cc1c(O)ccc2c1C(=O)N(Cc1ccccc1Oc1ccc(C(F)(F)F)cc1)C2C(=O)NC(C)(C)C (centres unmarked) [N-(tert-butyl)-5-hydroxy-4-methyl-3-oxo-2-{2-[4-(trifluoromethyl)phenoxy]benzyl}isoindoline-1-carboxamide] — 2.8-fold higher, 2000 nM
- CCCCNC(=O)C1c2ccccc2C(=O)N1CC(C)c1ccc(Cl)cc1 (centres unmarked) [N-butyl-2-[2-(4-chlorophenyl)propyl]-3-oxoisoindoline-1-carboxamide] — within 1.5-fold, 730 nM
- CCNC(=O)C1c2cc(Cl)ccc2C(=O)N1Cc1ccccc1-c1ccccc1 (centres unmarked) [2-(biphenyl-2-ylmethyl)-6-chloro-N-ethyl-3-oxoisoindoline-1-carboxamide] — within 1.5-fold, 1000 nM
- CCCNC(=O)C1c2cc(F)ccc2C(=O)N1Cc1ccccc1-c1ccccc1 (centres unmarked) [2-(biphenyl-2-ylmethyl)-6-fluoro-3-oxo-N-propylisoindoline-1-carboxamide] — 3.9-fold higher, 2800 nM
- CC(C)(CO)CN1C(=O)c2ccc(F)cc2C1C(=O)NCc1cccc(Cl)c1 (centres unmarked) [N-(3-chlorobenzyl)-6-fluoro-2-(3-hydroxy-2,2-dimethylpropyl)-3-oxoisoindoline-1-carboxamide] — 2.1-fold lower, 340 nM
- CC(C)(CO)CN1C(=O)c2ccc(F)cc2C1C(=O)NCc1cccc(OC(F)F)c1 (centres unmarked) [N-[3-(difluoromethoxy)benzyl]-6-fluoro-2-(3-hydroxy-2,2-dimethylpropyl)-3-oxoisoindoline-1-carboxamide] — 1.9-fold higher, 1400 nM
- CC(CN1C(=O)c2ccc(Cl)cc2C1C(=O)NCc1ccc(C(F)(F)F)nc1)c1ccc(Cl)cc1 (centres unmarked) [6-chloro-2-[2-(4-chlorophenyl)propyl]-3-oxo-N-{[6-(trifluoromethyl)pyridin-3-yl]methyl}isoindoline-1-carboxamide] — 1.7-fold lower, 420 nM
- CCN(Cc1ccccc1)C(=O)C1c2ccccc2C(=O)N1CCc1ccc(Cl)cc1 (centres unmarked) [N-benzyl-2-[2-(4-chlorophenyl)ethyl]-N-ethyl-3-oxoisoindoline-1-carboxamide] — within 1.5-fold, 930 nM
- CCCCNC(=O)C1c2c(F)cccc2C(=O)N1CC(C)c1ccc(Cl)cc1 (centres unmarked) — 1.8-fold higher, 1300 nM
- O=C(NCc1ccccc1)C1c2ccccc2C(=O)N1Cc1cc(-c2ccccc2)no1 (centres unmarked) [N-benzyl-3-oxo-2-[(3-phenylisoxazol-5-yl)methyl]isoindoline-1-carboxamide] — within 1.5-fold, 1000 nM
- O=C(NCCCC(F)F)C1c2cc(Cl)ccc2C(=O)N1Cc1ccccc1C1CCCC1 (centres unmarked) [6-chloro-2-(2-cyclopentylbenzyl)-N-(4,4-difluorobutyl)-3-oxoisoindoline-1-carboxamide] — 1.8-fold higher, 1300 nM
- CC(CN1C(=O)c2ccc(Cl)cc2C1C(=O)NCc1cccnc1)c1ccc(Cl)cc1 (centres unmarked) [6-chloro-2-[2-(4-chlorophenyl)propyl]-3-oxo-N-(pyridin-3-ylmethyl)isoindoline-1-carboxamide] — within 1.5-fold, 680 nM
- CC(CN1C(=O)c2ccccc2C1C(=O)NCc1ccc(F)cc1)c1ccc(Cl)cc1 (centres unmarked) [2-[2-(4-chlorophenyl)propyl]-N-(4-fluorobenzyl)-3-oxoisoindoline-1-carboxamide] — 2.6-fold higher, 1900 nM
- COc1ccc2c(c1OC)C(=O)N(CC(C)c1ccc(Cl)cc1)C2C(=O)NCc1ccccc1 (centres unmarked) [N-benzyl-2-[2-(4-chlorophenyl)propyl]-4,5-dimethoxy-3-oxoisoindoline-1-carboxamide] — within 1.5-fold, 610 nM
- CC(C)(CO)CN1C(=O)c2ccc(F)cc2C1C(=O)NCc1cccc(C(F)(F)F)c1 (centres unmarked) [6-fluoro-2-(3-hydroxy-2,2-dimethylpropyl)-3-oxo-N-[3-(trifluoromethyl)benzyl]isoindoline-1-carboxamide] — 2.4-fold higher, 1700 nM
- CC(C)(C)NC(=O)C1c2ccccc2C(=O)N1Cc1ccccc1-c1ccc(F)c(F)c1 (centres unmarked) [N-(tert-butyl)-2-[(3′,4′-difluorobiphenyl-2-yl)methyl]-3-oxoisoindoline-1-carboxamide] — 3.1-fold higher, 2200 nM
- Cn1nc(CN2C(=O)c3ccccc3C2C(=O)NC(C)(C)C)cc1-c1ccccc1 (centres unmarked) [N-(tert-butyl)-2-[(1-methyl-5-phenyl-1H-pyrazol-3-yl)methyl]-3-oxoisoindoline-1-carboxamide] — 3.5-fold higher, 2500 nM
- C[C@@H](c1ccccc1)N1C(=O)c2ccc(Cl)cc2C1C(=O)NCc1ccccc1 (stereo partly drawn) [N-benzyl-6-chloro-3-oxo-2-[(1S)-1-phenylethyl]isoindoline-1-carboxamide] — 3.1-fold higher, 2200 nM
- O=C(NCCCC(F)(F)F)C1c2cc(F)ccc2C(=O)N1Cc1ccccc1-c1ccccc1 (centres unmarked) [2-(biphenyl-2-ylmethyl)-6-fluoro-3-oxo-N-(4,4,4-trifluorobutyl)isoindoline-1-carboxamide] — 3.8-fold higher, 2700 nM
- CC(CN1C(=O)c2ccccc2C1C(=O)NCCc1c[nH]c2ccccc12)c1ccc(Cl)cc1 (centres unmarked) [2-[2-(4-chlorophenyl)propyl]-N-[2-(1H-indol-3-yl)ethyl]-3-oxoisoindoline-1-carboxamide] — within 1.5-fold, 620 nM
- CC(C)(C)CCN1C(=O)c2ccccc2C1C(=O)NCc1cccc(OC(F)F)c1 (centres unmarked) [N-[3-(difluoromethoxy)benzyl]-2-(3,3-dimethylbutyl)-3-oxoisoindoline-1-carboxamide] — 2.5-fold higher, 1800 nM
- CC(CN1C(=O)c2cc(Cl)c(Cl)cc2C1C(=O)NC(C)(C)C)c1ccc(Cl)cc1 (centres unmarked) [N-(tert-butyl)-5,6-dichloro-2-[2-(4-chlorophenyl)propyl]-3-oxoisoindoline-1-carboxamide] — 2.5-fold higher, 1800 nM
- O=C(NCCCC(F)F)C1c2ccccc2C(=O)N1C(c1ccccc1)c1ccccc1 (centres unmarked) [N-(4,4-difluorobutyl)-2-(diphenylmethyl)-3-oxoisoindoline-1-carboxamide] — 11-fold higher, 8000 nM
- CC(C)(C)NC(=O)C1c2cc(Cl)ccc2C(=O)N1Cc1ccccc1C(F)(F)F (centres unmarked) [N-(tert-butyl)-6-chloro-3-oxo-2-[2-(trifluoromethyl)benzyl]isoindoline-1-carboxamide] — 1.5-fold higher, 1100 nM
- CCCNC(=O)C1c2cc(F)ccc2C(=O)N1CC(C)c1ccc(Cl)cc1 (centres unmarked) [2-[2-(4-chlorophenyl)propyl]-6-fluoro-3-oxo-N-propylisoindoline-1-carboxamide] — 3.2-fold higher, 2300 nM
- CC(C)(C)NC(=O)C1c2cc(Cl)ccc2C(=O)N1Cc1ccccc1-c1ccccc1 (centres unmarked) [2-(biphenyl-2-ylmethyl)-N-(tert-butyl)-6-chloro-3-oxoisoindoline-1-carboxamide] — 2.2-fold higher, 1600 nM
- CC(C)(C)CN1C(=O)c2ccccc2C1C(=O)NCc1ccc(Cl)c(Cl)c1 (centres unmarked) [N-(3,4-dichlorobenzyl)-2-(2,2-dimethylpropyl)-3-oxoisoindoline-1-carboxamide] — 3.5-fold higher, 2500 nM
- CC(CN1C(=O)c2ccc(Cl)cc2C1C(=O)NCCCC(F)(F)F)c1ccc(Cl)cc1 (centres unmarked) [6-chloro-2-[2-(4-chlorophenyl)propyl]-3-oxo-N-(4,4,4-trifluorobutyl)isoindoline-1-carboxamide] — 1.6-fold lower, 460 nM
- CNC(=O)C1c2cc(Br)ccc2C(=O)N1Cc1ccccc1C1CCCC1 (centres unmarked) [6-bromo-2-(2-cyclopentylbenzyl)-N-methyl-3-oxoisoindoline-1-carboxamide] — 3.8-fold higher, 2700 nM
- CC(C)(C)NC(=O)C1c2ccccc2C(=O)N1Cc1ccccc1-c1ccc(F)cc1 (centres unmarked) [N-(tert-butyl)-2-[(4′-fluorobiphenyl-2-yl)methyl]-3-oxoisoindoline-1-carboxamide] — 10-fold higher, 7300 nM
- O=C(NCc1ccccc1)C1c2cc(F)ccc2C(=O)N1Cc1ccccc1-c1ccccc1 (centres unmarked) [N-benzyl-2-(biphenyl-2-ylmethyl)-6-fluoro-3-oxoisoindoline-1-carboxamide] — within 1.5-fold, 1000 nM
- N#Cc1cccc(CNC(=O)C2c3ccccc3C(=O)N2Cc2cccc(Cl)c2)c1 (centres unmarked) [2-(3-chlorobenzyl)-N-(3-cyanobenzyl)-3-oxoisoindoline-1-carboxamide] — 2.8-fold higher, 2000 nM
